Experimental data published in ChEMBL document CHEMBL3044906, “Synthesis and blood glucose lowering activity of some novel benzenesulfonylthiourea derivatives substituted with 6-aryl-4,5-dihyropyridazin-3(2H)-ones” (2012).
Calls of active or inactive are those of the source. The calls are words filed in the database; no cut-off is given here.

How the values were obtained:
Rattus norvegicus [1] = assay: Antihyperglycemic activity in Rattus norvegicus Wistar albino (rat) assessed as reduction in blood glucose level at 20 mg/kg, po administered 30 min before 3 g/kg, po glucose challenge by oral glucose tolerance test; assay type: functional
Rattus norvegicus [2] = assay: Antihyperglycemic activity in Rattus norvegicus Wistar albino (rat) assessed as blood glucose level at 20 mg/kg, po administered 30 min before 3 g/kg, po glucose challenge by oral glucose tolerance test (reference value: 149 +/- 6.3 mg/dl); assay type: functional

SMILES | inhibition in vivo at 20 mg/kg (Rattus norvegicus [1]) | Activity (Rattus norvegicus [2]) | inhibition (Rattus norvegicus [1])
COc1ccc(C2=NN(c3ccc(S(=O)(=O)NC(=S)NCc4ccccc4)cc3)C(=O)CC2)cc1 | 5.6% | 152 mg/dL | 
Cc1ccc(C2=NN(c3ccc(S(=O)(=O)NC(=S)NCc4ccccc4)cc3)C(=O)CC2)cc1 | 21.3% | 136 mg/dL | 
CCCNC(=S)NS(=O)(=O)c1ccc(N2N=C(c3ccc(OC)cc3)CCC2=O)cc1 | 37.1% | 132 mg/dL | 
CCCNC(=S)NS(=O)(=O)c1ccc(N2N=C(c3ccc(Oc4ccccc4)cc3)CCC2=O)cc1 |  | 152 mg/dL | inactive
O=C1CCC(c2ccccc2)=NN1c1ccc(S(=O)(=O)NC(=S)NCc2ccccc2)cc1 | 26.6% | 139 mg/dL | 
COc1ccc(Cl)cc1C(=O)NCCc1ccc(S(=O)(=O)NC(=O)NC2CCCCC2)cc1 [GLYBURIDE] |  | 94.3 mg/dL | 
CCCNC(=S)NS(=O)(=O)c1ccc(N2N=C(c3ccc(Cl)cc3)CCC2=O)cc1 | 32.7% | 132.5 mg/dL | 
O=C1CCC(c2ccc(Cl)cc2)=NN1c1ccc(S(=O)(=O)NC(=S)NCc2ccccc2)cc1 | 38.8% | 128.5 mg/dL | 
CCCNC(=S)NS(=O)(=O)c1ccc(N2N=C(c3ccc(C)cc3)CCC2=O)cc1 | 30.9% | 134.5 mg/dL | 
CCc1ccc(C2=NN(c3ccc(S(=O)(=O)NC(=S)NCc4ccccc4)cc3)C(=O)CC2)cc1 | 3.8% | 148 mg/dL | 
O=C1CCC(c2ccc(Oc3ccccc3)cc2)=NN1c1ccc(S(=O)(=O)NC(=S)NCc2ccccc2)cc1 | 3% | 147.5 mg/dL | 
O=C1CCC(c2ccc(-c3ccccc3)cc2)=NN1c1ccc(S(=O)(=O)NC(=S)NCc2ccccc2)cc1 | 24.8% | 137.5 mg/dL | 
O=C1CCC(c2ccc(-c3ccccc3)cc2)=NN1c1ccc(S(=O)(=O)NC(=S)Nc2ccccc2)cc1 |  | 166 mg/dL | inactive
O=C1CCC(c2ccc(Cl)cc2)=NN1c1ccc(S(=O)(=O)NC(=S)Nc2ccccc2)cc1 | 4.7% | 148 mg/dL | 
CCCNC(=S)NS(=O)(=O)c1ccc(N2N=C(c3ccccc3)CCC2=O)cc1 |  | 160 mg/dL | inactive
COc1ccc(C2=NN(c3ccc(S(=O)(=O)NC(=S)Nc4ccccc4)cc3)C(=O)CC2)cc1 |  | 170.5 mg/dL | inactive
